Laboratory results published in patent US20240247035A1, “STAPLED ANTIMICROBIAL PEPTIDES (STAMPS) AND USES THEREOF” (Lytica Therapeutics, Inc., priority 2021, published 2024).
Values after ≈ are worked out from the molar mass of the structure shown. Bridge positions count the residues as written; N and C are the ends. Square brackets hold non-standard residues; d marks the D form. Peptide text beside a SMILES is read from it. Phe(4-tBu) = CC(C)(C)c1ccc(C[C@H](N)C(=O)O)cc1; S5 = C=CCCC[C@](C)(N)C(=O)O

Columns and labels:
[1] = 90 minute cytotoxicity assay (LDH release), renal toxicity; assay type: cell-based; conditions: human
Method: (§1) Cell culture: RPTEC were maintained in MEM media supplemented with growth factors. HEPG2 cell line was maintained in Eagle's Minimum Essential Medium (EMEM) supplemented with fetal bovine serum to a final concentration of 10%.
90 minute cytotoxicity assay: Cells were plated in a 96-well format, and after overnight incubation, media was replaced with fresh media. Serial dilutions of StAMPs from a 5 mg/mL water stock, or vehicle, were added to the cells in a final volume of 100 μl. After incubating at 37° C. for 90 min, 50 μl of cell culture media was transferred to a clear 96-well plate, incubated with 50 μl of lactate dehydrogenase (LDH) assay reagent for 10 min, and absorbance measured at 490 nm on a microplate reader.
(§2) Renal toxicity was measured after 90 minutes of incubation, while liver toxicity was measured after 48 hours of incubation with StAMPs. N/A=not tested.

[2] = 48 hours cytotoxicity assay (CellTiter-Glo), liver toxicity; assay type: cell-based; conditions: human
Method: as §1
48 hours cytotoxicity assay: Cells were plated in a 96-well format, and after 4 hour incubation to allow attachment, serial dilutions of StAMPs from a 5 mg/mL water stock, or vehicle, were then added to the cells in a final volume of 100 μl. After incubating at 37° C. for 48 hours, 100 μl of CellTiter-Glo® reagent was added to the cells, and the plates were incubated 10 minutes at room temperature. Luminescence was then measured on a microplate reader.
as §2

Row | SMILES | IC50 at 90 min [1] | IC50 at 48 hours [2]
1 | CC[C@H](C)[C@H](NC(=O)[C@H](CCCCN)NC(=O)[C@H](CCCCN)NC(=O)CNC(=O)[C@H](CCCCN)NC(=O)[C@]1(C)CCCC=CCCC[C@](C)(NC(=O)CN)C(=O)N[C@@H](Cc2ccccc2)C(=O)N[C@@H](CO)C(=O)N[C@@H](CCCCN)C(=O)N1)C(=O)N[C@@H](CCCCN)C(=O)N[C@@H](CC(N)=O)C(=O)N[C@@H](CC(C)C)C(=O)N[C@@]1(C)CCCC=CCCC[C@@](C)(C(=O)N[C@@H](CCCCN)C(=O)NCC(N)=O)NC(=O)CNC(=O)[C@H](CO)NC(=O)[C@H]([C@@H](C)CC)NC1=O [compound 1] (H-G[S5]FSK[S5]KGKKIKNL[S5]ISG[S5]KG-NH2; staple 2-6, 15-19) | 48 µg/mL (≈ 21 µM) | 47 µg/mL (≈ 20.5 µM)
2 | CC[C@H](C)[C@H](NC(=O)[C@H](CCCCN)NC(=O)[C@H](CCCCN)NC(=O)CNC(=O)[C@H](CCCCN)NC(=O)[C@]1(C)CCCC=CCCC[C@](C)(NC(=O)CN)C(=O)N[C@@H](CCCCN)C(=O)N[C@@H](CO)C(=O)N[C@@H](CCCCN)C(=O)N1)C(=O)N[C@@H](CCCCN)C(=O)N[C@@H](CC(N)=O)C(=O)N[C@@H](CC(C)C)C(=O)N[C@@]1(C)CCCC=CCCC[C@@](C)(C(=O)N[C@@H](CCCCN)C(=O)NCC(N)=O)NC(=O)CNC(=O)[C@H](CO)NC(=O)[C@H]([C@@H](C)CC)NC1=O [compound 2] (H-G[S5]KSK[S5]KGKKIKNL[S5]ISG[S5]KG-NH2; staple 2-6, 15-19) | 203 µg/mL (≈ 89.4 µM) | 109 µg/mL (≈ 48 µM)
3 | CC[C@H](C)[C@H](NC(=O)[C@H](CCCCN)NC(=O)[C@H](CCCCN)NC(=O)CNC(=O)[C@H](CCCCN)NC(=O)[C@]1(C)CCCC=CCCC[C@](C)(NC(=O)CN)C(=O)N[C@@H](Cc2ccccc2)C(=O)N[C@@H](CO)C(=O)N[C@@H](CCCCN)C(=O)N1)C(=O)N[C@@H](CCCCN)C(=O)N[C@@H](CC(N)=O)C(=O)N[C@@H](CC(C)C)C(=O)N[C@@]1(C)CCCC=CCCC[C@@](C)(C(=O)N[C@@H](CCCCN)C(=O)NCC(N)=O)NC(=O)[C@H](CCCCN)NC(=O)[C@H](CO)NC(=O)[C@H]([C@@H](C)CC)NC1=O [compound 3] (H-G[S5]FSK[S5]KGKKIKNL[S5]ISK[S5]KG-NH2; staple 2-6, 15-19) | 119 µg/mL (≈ 50.4 µM) | 57 µg/mL (≈ 24.1 µM)
4 | CC[C@H](C)[C@H](NC(=O)[C@H](CCCCN)NC(=O)[C@H](CCCCN)NC(=O)CNC(=O)[C@H](CCCCN)NC(=O)[C@]1(C)CCCC=CCCC[C@](C)(NC(=O)CN)C(=O)N[C@@H](Cc2ccccc2)C(=O)N[C@@H](CO)C(=O)N[C@@H](CCCCN)C(=O)N1)C(=O)N[C@@H](CCCCN)C(=O)N[C@@H](CC(N)=O)C(=O)N[C@@H](CC(C)C)C(=O)N[C@@]1(C)CCCC=CCCC[C@@](C)(C(=O)N[C@@H](CCCCN)C(=O)N[C@@H](CCCCN)C(N)=O)NC(=O)CNC(=O)[C@H](CO)NC(=O)[C@H]([C@@H](C)CC)NC1=O [compound 4] (H-G[S5]FSK[S5]KGKKIKNL[S5]ISG[S5]KK-NH2; staple 2-6, 15-19) | 34 µg/mL (≈ 14.4 µM) | 24 µg/mL (≈ 10.2 µM)
5 | CC[C@H](C)[C@H](NC(=O)[C@H](CCCCN)NC(=O)[C@H](CCCCN)NC(=O)CNC(=O)[C@H](CCCCN)NC(=O)[C@]1(C)CCCC=CCCC[C@](C)(NC(=O)CN)C(=O)N[C@@H](CCCCN)C(=O)N[C@@H](CO)C(=O)N[C@@H](CCCCN)C(=O)N1)C(=O)N[C@@H](CCCCN)C(=O)N[C@@H](CC(N)=O)C(=O)N[C@@H](CC(C)C)C(=O)N[C@@]1(C)CCCC=CCCC[C@@](C)(C(=O)N[C@@H](CCCCN)C(=O)NCC(N)=O)NC(=O)[C@H](CCCCN)NC(=O)[C@H](CO)NC(=O)[C@H]([C@@H](C)CC)NC1=O [compound 5] (H-G[S5]KSK[S5]KGKKIKNL[S5]ISK[S5]KG-NH2; staple 2-6, 15-19) | 180 µg/mL (≈ 76.9 µM) | 100 µg/mL (≈ 42.7 µM)
6 | CC[C@H](C)[C@H](NC(=O)[C@H](CCCCN)NC(=O)[C@H](CCCCN)NC(=O)CNC(=O)[C@H](CCCCN)NC(=O)[C@]1(C)CCCC=CCCC[C@](C)(NC(=O)CN)C(=O)N[C@@H](CCCCN)C(=O)N[C@@H](C(C)C)C(=O)N[C@@H](CCCCN)C(=O)N1)C(=O)N[C@@H](CCCCN)C(=O)N[C@@H](CC(N)=O)C(=O)N[C@@H](CC(C)C)C(=O)N[C@@]1(C)CCCC=CCCC[C@@](C)(C(=O)N[C@@H](CCCCN)C(=O)NCC(N)=O)NC(=O)CNC(=O)[C@H](CO)NC(=O)[C@H]([C@@H](C)CC)NC1=O [compound 6] (H-G[S5]KVK[S5]KGKKIKNL[S5]ISG[S5]KG-NH2; staple 2-6, 15-19) | 215 µg/mL (≈ 94.2 µM) | 200 µg/mL (≈ 87.6 µM)
7 | CC[C@H](C)[C@H](NC(=O)[C@H](CCCCN)NC(=O)[C@H](CCCCN)NC(=O)[C@@H](NC(=O)[C@H](CCCCN)NC(=O)[C@]1(C)CCCC=CCCC[C@](C)(NC(=O)CN)C(=O)N[C@@H](CCCCN)C(=O)N[C@@H](CO)C(=O)N[C@@H](CCCCN)C(=O)N1)C(C)C)C(=O)N[C@@H](CCCCN)C(=O)N[C@@H](CC(N)=O)C(=O)N[C@@H](CC(C)C)C(=O)N[C@@]1(C)CCCC=CCCC[C@@](C)(C(=O)N[C@@H](CCCCN)C(=O)NCC(N)=O)NC(=O)CNC(=O)[C@H](CO)NC(=O)[C@H]([C@@H](C)CC)NC1=O [compound 7] (H-G[S5]KSK[S5]KVKKIKNL[S5]ISG[S5]KG-NH2; staple 2-6, 15-19) | 191 µg/mL (≈ 82.6 µM) | 72 µg/mL (≈ 31.1 µM)
8 | CC[C@H](C)[C@@H]1NC(=O)[C@@](C)(NC(=O)[C@H](CC(C)C)NC(=O)[C@H](CC(N)=O)NC(=O)[C@H](CCCCN)NC(=O)[C@@H](NC(=O)[C@H](CCCCN)NC(=O)[C@H](CCCCN)NC(=O)CNC(=O)[C@H](CCCCN)NC(=O)[C@]2(C)CCCC=CCCC[C@](C)(NC(=O)CN)C(=O)N[C@@H](CCCCN)C(=O)N[C@@H](CO)C(=O)N[C@@H](CCCCN)C(=O)N2)C(C)C)CCCC=CCCC[C@@](C)(C(=O)N[C@@H](CCCCN)C(=O)NCC(N)=O)NC(=O)CNC(=O)[C@H](CO)NC1=O [compound 8] (H-G[S5]KSK[S5]KGKKVKNL[S5]ISG[S5]KG-NH2; staple 2-6, 15-19) | > 200 µg/mL | > 200 µg/mL
9 | CC[C@H](C)[C@@H]1NC(=O)[C@@](C)(NC(=O)[C@H](CC(C)C)NC(=O)[C@H](CC(N)=O)NC(=O)[C@H](CCCCN)NC(=O)[C@H](CC(C)C)NC(=O)[C@H](CCCCN)NC(=O)[C@H](CCCCN)NC(=O)CNC(=O)[C@H](C)NC(=O)[C@]2(C)CCCC=CCCC[C@](C)(NC(=O)CN)C(=O)N[C@@H](CCCCN)C(=O)N[C@@H](CO)C(=O)N[C@@H](CCCCN)C(=O)N2)CCCC=CCCC[C@@](C)(C(=O)N[C@@H](CCCCN)C(=O)N[C@@H](CC(N)=O)C(N)=O)NC(=O)CNC(=O)[C@H](CO)NC1=O [compound 9] (H-G[S5]KSK[S5]AGKKLKNL[S5]ISG[S5]KN-NH2; staple 2-6, 15-19) | 184 µg/mL (≈ 81 µM) | 107 µg/mL (≈ 47.1 µM)
10 | CC[C@H](C)[C@H](NC(=O)[C@H](CCCCN)NC(=O)[C@H](CCCCN)NC(=O)CNC(=O)[C@H](C)NC(=O)[C@]1(C)CCCC=CCCC[C@](C)(NC(=O)CN)C(=O)N[C@@H](Cc2ccccc2)C(=O)N[C@@H](CO)C(=O)N[C@@H](CCCCN)C(=O)N1)C(=O)N[C@@H](CCCCN)C(=O)N[C@@H](CC(N)=O)C(=O)N[C@@H](CC(C)C)C(=O)N[C@@]1(C)CCCC=CCCC[C@@](C)(C(=O)N[C@@H](CCCCN)C(=O)N[C@@H](CC(N)=O)C(N)=O)NC(=O)CNC(=O)[C@H](CO)NC(=O)[C@H]([C@@H](C)CC)NC1=O [compound 10] (H-G[S5]FSK[S5]AGKKIKNL[S5]ISG[S5]KN-NH2; staple 2-6, 15-19) | 18 µg/mL (≈ 7.86 µM) | 16 µg/mL (≈ 6.99 µM)
11 | CC[C@H](C)[C@H](NC(=O)[C@H](CCCCN)NC(=O)[C@H](CCCCN)NC(=O)CNC(=O)[C@H](C)NC(=O)[C@]1(C)CCCC=CCCC[C@](C)(NC(=O)CN)C(=O)N[C@@H](CCCCN)C(=O)N[C@@H](CO)C(=O)N[C@@H](CCCCN)C(=O)N1)C(=O)N[C@@H](CCCCN)C(=O)N[C@@H](CC(N)=O)C(=O)N[C@@H](CC(C)C)C(=O)N[C@@]1(C)CCCC=CCCC[C@@](C)(C(=O)N[C@@H](CCCCN)C(=O)N[C@@H](CC(N)=O)C(N)=O)NC(=O)CNC(=O)[C@H](CO)NC(=O)[C@H]([C@@H](C)CC)NC1=O [compound 11] (H-G[S5]KSK[S5]AGKKIKNL[S5]ISG[S5]KN-NH2; staple 2-6, 15-19) | 186 µg/mL (≈ 81.9 µM) | 125 µg/mL (≈ 55 µM)
12 | CC[C@H](C)[C@@H]1NC(=O)[C@@](C)(NC(=O)[C@H](CC(C)C)NC(=O)[C@H](CC(N)=O)NC(=O)[C@H](CCCCN)NC(=O)[C@H](CC(C)C)NC(=O)[C@H](CCCCN)NC(=O)[C@H](CCCCN)NC(=O)CNC(=O)[C@H](C)NC(=O)[C@]2(C)CCCC=CCCC[C@](C)(NC(=O)CN)C(=O)N[C@@H](CCCCN)C(=O)N[C@@H](CO)C(=O)N[C@@H](CCCCN)C(=O)N2)CCCC=CCCC[C@@](C)(C(=O)N[C@@H](CCCCN)C(=O)NCC(N)=O)NC(=O)CNC(=O)[C@H](CO)NC1=O [compound 12] (H-G[S5]KSK[S5]AGKKLKNL[S5]ISG[S5]KG-NH2; staple 2-6, 15-19) | > 200 µg/mL | 91 µg/mL (≈ 41.1 µM)
13 | CC[C@H](C)[C@@H]1NC(=O)[C@@](C)(NC(=O)[C@H](CC(C)C)NC(=O)[C@H](CC(N)=O)NC(=O)[C@H](CCCCN)NC(=O)[C@H](Cc2ccc(C(C)(C)C)cc2)NC(=O)[C@H](CCCCN)NC(=O)[C@H](CCCCN)NC(=O)CNC(=O)[C@H](CCCCN)NC(=O)[C@]2(C)CCCC=CCCC[C@](C)(NC(=O)CN)C(=O)N[C@@H](CCCCN)C(=O)N[C@@H](CO)C(=O)N[C@@H](CCCCN)C(=O)N2)CCCC=CCCC[C@@](C)(C(=O)N[C@@H](CCCCN)C(=O)N[C@@H](CC(N)=O)C(N)=O)NC(=O)CNC(=O)[C@H](CO)NC1=O [compound 18] (H-G[S5]KSK[S5]KGKK[Phe(4-tBu)]KNL[S5]ISG[S5]KN-NH2; staple 2-6, 15-19) | – | 21 µg/mL (≈ 8.68 µM)
